The record followed here is patent US20240409536A1, “COMPOUNDS AND METHODS FOR MODULATING SPLICING” (REMIX THERAPEUTICS INC., priority 2021, published 2024).

The subject of data set [1] is HiBiT-tagged HTT protein. The data set can be described thus: HiBiT protein abundance assay, HTT (K562 HiBiT knock-in cells). The note with it: 24 hours. The class given is cell-based, human. As for the experimental part: (§1) Compounds described herein were used to screen for effects on quantitative protein abundance using a HiBit assay system (Promega). Quantitative protein abundance was determined by measuring the protein levels of HiBit-tagged protein targets expressed in cell culture via luminescence using the Nano-Glo HiBiT Lytic Detection System, which uses a split complementation assay format to reconstitute NanoBiT enzyme to generate a luminescent signal. A protein abundance assay was developed such that endogenous protein targets could be modified with the HiBiT peptide tag and their abundance could be assessed after compound treatment. Briefly, K562 cell lines containing a HiBiT-modification were treated with various compounds described herein (e.g., compounds of Formulas (I), (II), or (III)). After treatment for 24 hours, the protein abundance of a specific target was determined by measuring luminescence.
(§2) • Promega Nano-Glo HiBiT Lytic Detection System (cat #N3030) • Corning 384-well TC-treated microplates (cat #3570) • Synthego Engineered Cells Knock-In Clones
(§3) Cells were maintained in IMDM with 10% FBS. Before the assay, cells were diluted with […] growth media (IMDM+1% FBS media) and were seeded in a 384-well plate at a density of 10000 cells/well (for each cell line listed in Table 6). Each compound was prepared as a 10-point 3-fold serial dilution in DMSO with the top dose at a final concentration of 10 μM in the well. Unmodified K562 cells were added at the previously specified density with DMSO to serve as an assay baseline and positive control (PC) and DMSO only with the respective modified cell lines was added to the negative control (NC) columns. Final DMSO concentration was kept at or below 0.25%. Treated cell plates were placed in an incubator at 37° C. with 5% CO2 for 24 hours. After 24 hours, 25 μL of Complete HiBit Lytic reagent was added to each well at room temperature (e.g. one plate requiring 10 mL Lytic Buffer, 100 μL LgBiT Protein, 200 μL Lytic Substrate), shaken for 5 minutes at 600 RPM, then left to sit for 10 minutes for signal to stabilize before reading on a Spark Cyto plate reader (Tecan) with a 500 ms measurement time.
(§4) To determine compound effects on protein abundance of each target in Table 6, the percent response for each respective cell line was calculated at each compound concentration as follows:
(§5) For the normalized response at each concentration, a four-parameter logistical regression was fit to the data and the response was interpolated at the 50% value to determine a concentration for protein abundance at 50% (IC50) the untreated control.
In general terms: HiBiT is a short tag that completes a luciferase, so light tracks the accessible tagged protein.

The test system of data set [2] is K562 cells. Briefly: Cell Titer Glo 2.0 cell viability assay in K562 cells. The settings on record: 72 hours. Background: Cellular ATP, detected with luciferase, serves as a proxy for viable cell number.
Experimental: Compounds described herein were screened for toxicity in K562 (human chronic myelogenous leukemia) and SH-SY5Y (human neuroblastoma) cells using a Cell Titer Glo 2.0 assay.
Cells were plated at 500 cells/well (K562 cells) in 45 μL of IMDM supplemented with 10% FBS in a 384-well opaque plate. Wells containing only medium were used as a blank control. Test compounds (e.g., compounds of Formula (I), (II), or (III)) were first serially diluted in DMSO then diluted 1:100 with IMDM+10% FBS. The final concentration of DMSO was 0.1% in each well. The cells were incubated for 72 hours at 37° C. and 5% CO2 before assaying with Cell Titer Glo 2.0 reagent.
Data set [3] deals with HiBiT-tagged MYB protein. Briefly: HiBiT protein abundance assay, MYB (K562 HiBiT knock-in cells). The class given is cell-based, human. The note with it: 24 hours. As to the method: as §1, §2, §3, §4, §5
The test system of data set [4] is Target C. The data set can be described thus: HiBiT protein abundance assay, Target C (K562 HiBiT knock-in cells). The format is cell-based, human. The note with it: 24 hours. As to the method:
as §2, §3, §4, §5

Data set [5] relates to MYB mRNA. Briefly: Splicing RT-qPCR assay, MYB canonical (CJ) and alternative (AJ) junction mRNA. The settings on record: Homo sapiens, A673 or K562 cells, 24 hours. The class given is cell-based. A digest of the protocol: (§6)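 A673 (DMEM/10% FBS, plated 24 h before dosing) or K562 (IMDM/10% FBS) cells treated 24 h at 37 °C with 11-point 3-fold dilutions, top final 10 uM, DMSO ≤0.25%. Lysates analysed by one-step RT-qPCR for CJ and AJ isoforms, normalized to GAPDH/GUSB (K562) or PPIA (A673).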

Data set [6] has as its system HTT mRNA. The data set can be described thus: Splicing RT-qPCR assay, HTT canonical (CJ) and alternative (AJ) junction mRNA. The class given is cell-based. The note with it: Homo sapiens, A673 or K562 cells, 24 hours. A digest of the protocol: as §6
For orientation: Quantitative PCR measures a nucleic acid by following its amplification.

[7] abbreviates: decrease in canonical junction mRNA.
Setting [8] is: increase in alternative junction mRNA.

A value given as a limit tells only on which side of the number the result lay.

For the molecule `COc1cnc2c(C(=O)Nc3cc(F)c4nc(C)cn4c3)ccc(N3CCC(N(C)C)CC3)c2n1` [Compound 224, 8-[4-(dimethylamino)piperidin-1-yl]-N-{8-fluoro-2-methylimidazo[1,2-a]pyridin-6-yl}-2-methoxyquinoxaline-5-carboxamide], the IC50 (usually the concentration that inhibits the measured activity by half) in data set [1] was greater than 10000 nM; in data set [3], less than 100 nM; in data set [4], greater than 10000 nM. Further, the Viability entry in data set [2] is listed as “B (B represents 100-1000 nM)”.

Consider `Cc1cn2cc(NC(=O)c3ccc(N4CCN[C@@H](CO)C4)c4nccnc34)cc(F)c2n1` [Compound 361], for which the half-inhibitory concentration (IC50) fell in the range of 1000 to 10000 nM in data set [1]; 100 to 1000 nM in data set [5] (setting [7]); 100 to 1000 nM in data set [3]; 1000 to 10000 nM in data set [4]; 1000 to 10000 nM in data set [6] (setting [7]). Also, the Viability result in data set [2] was “B (B represents 100-1000 nM)”. Also, the AC50 (commonly the concentration giving half of the maximal activity seen) in data set [5] (setting [8]) was less than 100 nM; in data set [6] (setting [8]), 1000 to 10000 nM.
